In patent US20120309734A1, “COMBRETASTATIN DERIVATIVES AND USES THEREFOR” (priority 2009, published 2012):

Legend:
[1] = tested on: MCF-7 breast cancer cell line; assay: Antiproliferation study, MTT cell viability assay; assay type: cell-based; conditions: Homo sapiens, MCF7, 72 h, antiproliferative activity, MTT, 72 h; read-out: IC50 (μM) MCF-7 cell line
Procedure: All assays were performed in triplicate for the determination of mean values reported. Compounds were assayed as the free bases isolated from reaction. The human breast tumour cell line MCF-7 was cultured in Eagles minimum essential medium in a […] atmosphere with 10% fetal bovine serum, 2 mM L-glutamine and 100 μg/mL penicillin/streptomycin. The medium was supplemented with 1% non-essential amino acids. MDA-MB-231 cells were maintained in Dulbecco's Modified Eagle's medium (DMEM), supplemented with 10% (v/v) Fetal bovine serum, 2 mM L-glutamine and 100 μg/mL penicillin/streptomycin (complete medium). Cells were trypsinised and seeded at a density of 2.5×10^4 cells/ml in a 96-well plate and incubated at 37° C., […] atmosphere for 24 h. […] Control wells contained the equivalent volume of the vehicle ethanol (1% v/v). The culture medium was then removed and the cells washed with 100 μL phosphate buffered saline (PBS) and 50 μL MTT added, to reach a final concentration of 1 mg/mL MTT added. Cells were incubated for 2 h in darkness at 37° C. At this point solubilization was begun through the addition of 200 μL DMSO and the cells maintained at room temperature in darkness for 20 min to ensure thorough colour diffusion before reading the absorbance. The absorbance value of control cells (no added compound) was set to 100% cell viability and from this graphs of absorbance versus cell density per well were prepared to assess cell viability and from these, graphs of percentage cell viability versus concentration of subject compound added were drawn.

[2] = Stability by HPLC at three pH values; assay type: physicochemical
Procedure: The stability of β-lactam compounds 4, 8 and 12 was assessed by HPLC at three different pH values. […] The half-lives of 8 and 12 were both greater than 24 hours at all pH values. The stability of three ester prodrug derivatives of 4, i.e. 29, 30 and 31, was also assessed (FIG. 6).

C=C(C)C1C(=O)N(c2cc(OC)c(OC)c(OC)c2)C1c1ccc(OC)c(O)c1 (centres unmarked) [Compound 3, 4-(3-Hydroxy-4-methoxy-phenyl)-3-isopropenyl-1-(3,4,5-trimethoxy-phenyl)-azetidin-2-one]
IC50 [1]: 0.019 µM

COc1ccc(C2C(C(C)O)C(=O)N2c2cc(OC)c(OC)c(OC)c2)cc1O (centres unmarked) [Compound 6, 3-(1-Hydroxy-ethyl)-4-(3-hydroxy-4-methoxy-phenyl)-1-(3,4,5-trimethoxy-phenyl)-azetidin-2-one]
IC50 [1]: 0.0376 µM

COc1ccc(C2C(C(O)C=Cc3ccccc3)C(=O)N2c2cc(OC)c(OC)c(OC)c2)cc1O (centres unmarked) [Compound 7, 4-(3-Hydroxy-4-methoxy-phenyl)-3-(1-hydroxy-3-phenyl-allyl)-1-(3,4,5-trimethoxy-phenyl)-azetidin-2-one]
IC50 [1]: 0.0468 µM

COc1ccc(C2C(c3ccc(N)cc3)C(=O)N2c2cc(OC)c(OC)c(OC)c2)cc1 (centres unmarked) [Compound 9, 3-(4-Amino-phenyl)-4-(4-methoxy-phenyl)-1-(3,4,5-trimethoxyphenyl)-azetidin-2-one]
IC50 [1]: 0.05 µM

COc1ccc(C2C(c3ccccc3)C(=O)N2c2cc(OC)c(OC)c(OC)c2)cc1N (centres unmarked) [Compound 13, 4-(3-Amino-4-methoxy-phenyl)-3-phenyl-1-(3,4,5-trimethoxy-phenyl)-azetidin-2-one]
IC50 [1]: 0.065 µM

COc1ccc(C2C(c3ccc(F)cc3)C(=O)N2c2cc(OC)c(OC)c(OC)c2)cc1O (centres unmarked) [Compound 16, 3-(4-Fluoro-phenyl)-4-(3-hydroxy-4-methoxy-phenyl)-1-(3,4,5-trimethoxy-phenyl)-azetidin-2-one]
IC50 [1]: 0.065 µM

COc1ccc(C2C(c3ccc(F)cc3)C(=O)N2c2cc(OC)c(OC)c(OC)c2)cc1N (centres unmarked) [Compound 17, 4-(3-Amino-4-methoxy-phenyl)-3-(4-fluoro-phenyl)-1-(3,4,5-trimethoxy-phenyl)-azetidin-2-one]
IC50 [1]: 0.055 µM

COc1ccc(C2C(c3cccs3)C(=O)N2c2cc(OC)c(OC)c(OC)c2)cc1N (centres unmarked) [Compound 19, 4-(3-Amino-4-methoxy-phenyl)-3-thiophen-2-yl-1-(3,4,5-trimethoxy-phenyl)-azetidin-2-one]
IC50 [1]: 0.041 µM

COc1ccc(C2C(c3cccc(O)c3)C(=O)N2c2cc(OC)c(OC)c(OC)c2)cc1 (centres unmarked) [Compound 22, 3-(3-Hydroxy-phenyl)-4-(4-methoxy-phenyl)-1-(3,4,5-trimethoxy-phenyl)-azetidin-2-one]
IC50 [1]: 0.0689 µM

COc1ccc(C2C(c3ccc(N)cc3)C(=O)N2c2cc(OC)c(OC)c(OC)c2)cc1O (centres unmarked) [Compound 23, 3-(4-Amino-phenyl)-4-(3-hydroxy-4-methoxy-phenyl)-1-(3,4,5-trimethoxy-phenyl)-azetidin-2-one]
IC50 [1]: 0.004 µM

COc1ccc(C2C(c3ccc(N)cc3)C(=O)N2c2cc(OC)c(OC)c(OC)c2)cc1N (centres unmarked) [Compound 24, 4-(3-Amino-4-methoxy-phenyl)-3-(4-amino-phenyl)-1-(3,4,5-trimethoxy-phenyl)-azetidin-2-one]
IC50 [1]: 0.03 µM

COc1ccc(C2CC(=O)N2c2cc(OC)c(OC)c(OC)c2)cc1 (centres unmarked) [Compound 26, 4-(4-Methoxyphenyl)-1-(3,4,5-trimethoxyphenyl)-azetidin-2-one]
IC50 [1]: 0.039 µM

COc1ccc(C2C(C)C(=O)N2c2cc(OC)c(OC)c(OC)c2)cc1 (centres unmarked) [Compound 27, 4-(4-Methoxyphenyl)-3-methyl-1-(3,4,5-trimethoxyphenyl)-azetidin-2-one]
IC50 [1]: 0.047 µM

COc1ccc(C2C(C)C(=O)N2c2cc(OC)c(OC)c(OC)c2)cc1O (centres unmarked) [Compound 28, 4-(3-Hydroxy-4-methoxyphenyl)-3-methyl-1-(3,4,5-trimethoxyphenyl)-azetidin-2-one]
IC50 [1]: 0.01 µM

COc1ccc([C@H]2[C@H](c3ccccc3)C(=O)N2c2cc(OC)c(OC)c(OC)c2)cc1OP(=O)(O)O [Compound 29]
compound remaining after 24 hours ([2]; pH 4): 100%
compound remaining after 24 hours ([2]; pH 7.4): 100%
compound remaining after 24 hours ([2]; pH 9): 100%

COc1ccc(C2[C@H](c3ccccc3)C(=O)N2c2cc(OC)c(OC)c(OC)c2)cc1OC(C)=O (some centres unmarked) [Compound 30]
compound remaining after 24 hours ([2]; pH 4): 60%
compound remaining after 24 hours ([2]; pH 7.4): 42%
compound remaining after 24 hours ([2]; pH 9): 54%
